Experimental data: publication PMC5000642 (International Journal of Molecular Sciences, 2016)
Where a SMILES comes first, the peptide text is derived from it. [ ]: non-standard residue; d: D form.

Key:
[1] = target: T1, proteinase-activated receptor 1 (PAR1) (Homo sapiens, UniProt P25116); experiment: cell-based; set-up: species or system HEK293; calcium mobilization assay in HEK293 cells stably expressing the human GPCR, agonist response
T1 construct: gene F2R; stably expressed in HEK293
T1 sequence (P25116 1-425): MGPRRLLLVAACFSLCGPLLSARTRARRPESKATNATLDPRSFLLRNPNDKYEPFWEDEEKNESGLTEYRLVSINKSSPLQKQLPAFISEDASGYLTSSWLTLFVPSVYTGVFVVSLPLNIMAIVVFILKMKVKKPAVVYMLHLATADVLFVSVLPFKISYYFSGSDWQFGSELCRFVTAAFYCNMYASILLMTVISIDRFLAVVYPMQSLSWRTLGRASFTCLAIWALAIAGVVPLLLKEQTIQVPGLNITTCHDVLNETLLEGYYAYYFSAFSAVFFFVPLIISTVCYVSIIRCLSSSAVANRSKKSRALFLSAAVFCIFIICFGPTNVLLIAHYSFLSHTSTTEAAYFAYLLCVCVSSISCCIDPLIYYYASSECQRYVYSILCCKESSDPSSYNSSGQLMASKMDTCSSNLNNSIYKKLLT
Experimental: To acquire the antagonist dose response, we tested the inhibitory effects of Sal A at different concentrations in the HEK293/ETAR cell line with 20 nM ET-1 stimulating. […] To omit a potential false positive, the cytotoxicity was tested in the HEK293/ETAR cell line by ATP CellTiter-Glo assay. In brief, Sal A was incubated in HEK293/ETAR cells for 30 min before luminescence signal measurement. […] The selectivity of Sal A was further assessed by calcium influx assay on 5 GPCRs. […] All cell lines were developed by standard procedures. Sal A was tested at a final concentration of 10 µM when cells were challenged with their selective agonists for antagonist identification. The selective antagonists of specific cell lines were used as positive control (Table S1). The HEK293 cell line was set up as the naïve group, and cells were challenged with 10 µM ATP as an agonist. […] The Gαq pathway is involved in ETAR activation, which increases intracellular Ca^2+. Based on this characteristic, a cell-based calcium mobilization assay has been used to study the function of GPCR and Ca^2+-permeable ion channels by measuring the changes of intracellular free Ca^2+ levels. In our previous study, recombinant ETAR in HEK293 cells was developed according to standard procedures. The utility of the cell line was validated using ETAR agonist (ET-1) and antagonist (BQ-123). […]

[2] = target: T2, endothelin A receptor (ETAR) (Homo sapiens, UniProt P25101); experiment: Calcium mobilization (Fluo-4) antagonist assay in HEK293/ETAR cells evoked by […] ET-1; selective over ETB, A1, AT1 and PAR1 cell lines; format: cell-based
T2 construct: gene EDNRA
T2 sequence (P25101 21-427): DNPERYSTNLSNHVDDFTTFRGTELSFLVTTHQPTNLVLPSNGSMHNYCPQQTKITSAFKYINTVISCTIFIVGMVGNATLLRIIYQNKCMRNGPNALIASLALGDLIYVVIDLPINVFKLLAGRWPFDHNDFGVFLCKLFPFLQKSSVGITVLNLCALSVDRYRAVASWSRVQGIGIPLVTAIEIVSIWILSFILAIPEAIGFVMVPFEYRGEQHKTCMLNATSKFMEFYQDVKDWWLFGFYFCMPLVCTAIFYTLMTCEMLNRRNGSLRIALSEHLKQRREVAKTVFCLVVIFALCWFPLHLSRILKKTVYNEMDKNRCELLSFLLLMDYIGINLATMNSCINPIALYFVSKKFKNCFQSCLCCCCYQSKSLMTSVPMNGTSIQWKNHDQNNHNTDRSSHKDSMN

[3] = target: T2, endothelin A receptor (ETAR); experiment: Calcium mobilization antagonist assay in HEK293/ETAR cells evoked by […] ET-1 (cell line validation); format: cell-based

CC(C)C[C@H](NC(=O)[C@H](CC(C)C)NC(=O)[C@H](Cc1ccccc1)NC(=O)[C@@H](N)CO)C(=O)N[C@@H](CCCN=C(N)N)C(=O)N[C@@H](CC(N)=O)C(=O)O [TRAP-6]
EC50 [1]: 890 nM

O=C(/C=C/c1ccc(O)c(O)c1/C=C/c1ccc(O)c(O)c1)O[C@H](Cc1ccc(O)c(O)c1)C(=O)O [Sal A, Salvianolic acid A]
IC50 [2]: 5700 nM

CC(C)C[C@@H]1NC(=O)[C@@H](C(C)C)NC(=O)[C@@H]2CCCN2C(=O)[C@@H](CC(=O)O)NC(=O)[C@@H](Cc2c[nH]c3ccccc23)NC1=O [BQ-123] (cyclo(L[dW][dD]P[dV]))
IC50 [3]: 0.1 nM
